Here are results for 1 compound from patent US20130121930A1, “Use of Glyceryl Trinitrate for Treating Hematomas” (priority 2010, published 2013).

The test system of this test is hematomas. The test can be described thus: Topically applied GTN on hematomas, general finding compared to untreated hematoma. It counts as in vivo. From the text:
Instead of darkening of the skin, the healing occurs with a green, followed by a yellow, coloration of the affected skin area.

[1] abbreviates: 1.2 to 6 mg GTN on the day of injury, then daily 0.8 to 1.6 mg GTN, compared to an untreated hematoma.

Molecules are shown by their SMILES.

`O=[N+]([O-])OCC(CO[N+](=O)[O-])O[N+](=O)[O-]` [GTN, glyceryl trinitrate]: the “typical darkening of the affected skin sites” value (1.2 to 6 mg GTN on the day of injury, then daily 0.8 to 1.6 mg GTN) is listed as “prevents the typical darkening”. For the same compound, under setting [1], the individual healing phases entry was “significantly shortened” and the “overall healing period for the treated hematomas” value is reported as “reduced by one-half”. The healing of hematomas result (topically applied) is “greatly accelerates”.
